Reference: patent US12180187B2, “1-phenyl-5-azinylpyrazolyl-3-oxyalkyl acids and their use for controlling unwanted plant growth” (BAYER AKTIENGESELLSCHAFT, priority 2019, dated 2024)

Key:
[1] = system: VERPE; test: Pre-emergence action against VERPE, 1280 g/ha; format: in vivo, Veronica persica; settings: scored visually after about 3 weeks vs untreated controls (100% = plants have died)
How it was run: (§1)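 Greenhouse pre-emergence test on sown seeds in sandy loam; soil-surface spray of formulated compound with 0.5% additive at 600 L/ha water. Scored visually, % vs untreated, after about 3 weeks.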

[2] = system: MATIN; test: Pre-emergence action at 320 g/ha against MATIN; format: in vivo, Tripleurospermum inodorum (Matricaria inodora); settings: visual scoring after about 3 weeks vs untreated controls
How it was run: (§2)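 Visual scoring in percent against untreated controls, about 3 weeks after treatment, where 100% means dead plants and 0% means no difference. Compounds were applied as aqueous suspension or emulsion (WP or EC, plus 0.5% additive) onto soil covering freshly sown seeds, at 600 l/ha water.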

[3] = system: LOLRI; test: Post-emergence action against LOLRI, 1.28 kg/ha; format: in vivo, Lolium rigidum; settings: dosage 1280 g/ha, visual rating about 3 weeks after treatment vs untreated controls
How it was run: (§3)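 Visual rating against untreated plants about 3 weeks after spraying gives % activity, where 0% means like controls and 100% means plants died. Plants were treated post-emergence at the one-leaf stage with compound formulated as wettable powder or emulsion concentrate, applied at 600 L water/ha plus 0.5% additive.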

[4] = system: ECHCG; test: Pre-emergence action against ECHCG, 1280 g/ha; format: in vivo, Echinochloa crus-galli; settings: visual scoring after about 3 weeks vs untreated controls, 100% = plants have died, 0% = like control plants
How it was run: as §1

[5] = system: VIOTR; test: Pre-emergence action at 320 g/ha against VIOTR; format: in vivo, Viola tricolor; settings: dosage 320 g/ha
How it was run: as §2

[6] = system: SETVI; test: Pre-emergence action against SETVI, 1280 g/ha; format: in vivo, Setaria viridis; settings: visual scoring after about 3 weeks vs untreated controls, 100% = plants have died, 0% = like control plants
How it was run: as §1

[7] = system: PHBPU; test: Pre-emergence action at 320 g/ha against PHBPU; format: in vivo; settings: visual scoring after about 3 weeks vs untreated controls
How it was run: as §2

[8] = system: SETVI; test: Pre-emergence action at 320 g/ha against SETVI; format: in vivo, Setaria viridis; settings: visual scoring after about 3 weeks vs untreated controls
How it was run: as §2

[9] = system: AMARE; test: Post-emergence action against AMARE, 1.28 kg/ha; format: in vivo, Amaranthus retroflexus; settings: dosage 1280 g/ha, visual rating about 3 weeks after treatment vs untreated controls (100% = plants died)
How it was run: as §3

[10] = system: MATIN; test: Pre-emergence action against MATIN, 1280 g/ha; format: in vivo, Tripleurospermum inodorum (Matricaria inodora); settings: scored visually after about 3 weeks vs untreated controls (100% = plants have died)
How it was run: as §1

[11] = system: ALOMY; test: Pre-emergence action at 320 g/ha against ALOMY; format: in vivo, Alopecurus myosuroides; settings: scored visually after about 3 weeks vs untreated controls (100% = plants have died)
How it was run: as §2

[12] = system: AMARE; test: Pre-emergence action against AMARE, 1280 g/ha; format: in vivo, Amaranthus retroflexus; settings: scored visually after about 3 weeks vs untreated controls (100% = plants have died)
How it was run: as §1

[13] = system: SETVI; test: Post-emergence action against SETVI, 1.28 kg/ha; format: in vivo, Setaria viridis; settings: dosage 1280 g/ha, visual rating about 3 weeks after treatment vs untreated controls
How it was run: as §3

[14] = system: AMARE; test: Pre-emergence action at 320 g/ha against AMARE; format: in vivo, Amaranthus retroflexus; settings: visual scoring after about 3 weeks vs untreated controls
How it was run: as §2

[15] = system: DIGSA; test: Pre-emergence action against DIGSA, 1280 g/ha; format: in vivo, Digitaria sanguinalis; settings: visual scoring after about 3 weeks vs untreated controls, 100% = plants have died, 0% = like control plants
How it was run: as §1

[16] = system: ALOMY; test: Post-emergence action against ALOMY, 1.28 kg/ha; format: in vivo, Alopecurus myosuroides; settings: dosage 1280 g/ha, visual rating about 3 weeks after treatment vs untreated controls
How it was run: as §3

[17] = system: VERPE; test: Pre-emergence action at 320 g/ha against VERPE; format: in vivo, Veronica persica; settings: visual scoring after about 3 weeks vs untreated controls
How it was run: as §2

[18] = system: ABUTH; test: Pre-emergence action against ABUTH, 1280 g/ha; format: in vivo, Abutilon theophrasti; settings: scored visually after about 3 weeks vs untreated controls (100% = plants have died)
How it was run: as §1

[19] = system: DIGSA; test: Pre-emergence action at 320 g/ha against DIGSA; format: in vivo, Digitaria sanguinalis; settings: visual scoring after about 3 weeks vs untreated controls
How it was run: as §2

[20] = system: MATIN; test: Post-emergence action against MATIN, 1.28 kg/ha; format: in vivo, Tripleurospermum inodorum (Matricaria inodora); settings: dosage 1280 g/ha, visual rating about 3 weeks after treatment vs untreated controls (100% = plants died)
How it was run: as §3

[21] = system: ALOMY; test: Pre-emergence action against ALOMY, 1280 g/ha; format: in vivo, Alopecurus myosuroides; settings: visual scoring after about 3 weeks vs untreated controls, 100% = plants have died, 0% = like control plants
How it was run: as §1

[22] = system: ABUTH; test: Pre-emergence action at 320 g/ha against ABUTH; format: in vivo, Abutilon theophrasti; settings: greenhouse, scored visually after about 3 weeks vs untreated controls, 100% = plants have died, 0% = like control plants
Text: b) Seeds of monocotyledonous and dicotyledonous weed plants and crop plants are placed in plastic or organic planting pots and covered with soil. The compounds of the invention, formulated in the form of wettable powders (WP) or as emulsion concentrates (EC), are then applied onto the surface of the covering soil as aqueous suspension or emulsion with addition of 0.5% additive at a water application rate of 600 l/ha (converted). After the treatment, the pots are placed in a greenhouse and kept under good growth conditions for the trial plants. After about 3 weeks, the effect of the preparations is scored visually in comparison with untreated controls as percentages. For example, 100% activity=the plants have died, 0% activity=like control plants. Tables 13 to 26 below show the effects of selected compounds of the general formula (I) on various harmful plants and at an application rate corresponding to 320 g/ha, which were obtained by the experimental procedure mentioned above.

[23] = system: POAAN; test: Post-emergence action against POAAN, 1.28 kg/ha; format: in vivo, Poa annua; settings: dosage 1280 g/ha, visual rating about 3 weeks after treatment vs untreated controls
How it was run: as §3

[24] = system: LOLRI; test: Pre-emergence action at 320 g/ha against LOLRI; format: in vivo, Lolium rigidum; settings: visual scoring after about 3 weeks vs untreated controls
How it was run: as §2

[25] = system: LOLRI; test: Pre-emergence action against LOLRI, 1280 g/ha; format: in vivo, Lolium rigidum; settings: visual scoring after about 3 weeks vs untreated controls, 100% = plants have died, 0% = like control plants
How it was run: as §1

[26] = system: ABUTH; test: Post-emergence action against ABUTH, 1.28 kg/ha; format: in vivo, Abutilon theophrasti; settings: dosage 1280 g/ha, visual rating about 3 weeks after treatment vs untreated controls (100% = plants died)
How it was run: as §3

[27] = system: POAAN; test: Pre-emergence action against POAAN, 1280 g/ha; format: in vivo, Poa annua; settings: visual scoring after about 3 weeks vs untreated controls, 100% = plants have died, 0% = like control plants
How it was run: as §1

[28] = system: VERPE; test: Post-emergence action against VERPE, 1.28 kg/ha; format: in vivo, Veronica persica; settings: dosage 1280 g/ha, visual rating about 3 weeks after treatment vs untreated controls (100% = plants died)
How it was run: as §3

[29] = system: STEME; test: Pre-emergence action against STEME, 1280 g/ha; format: in vivo, Stellaria media; settings: scored visually after about 3 weeks vs untreated controls (100% = plants have died)
How it was run: as §1

[30] = system: STEME; test: Post-emergence action against STEME, 1.28 kg/ha; format: in vivo, Stellaria media; settings: dosage 1280 g/ha, visual rating about 3 weeks after treatment vs untreated controls (100% = plants died)
How it was run: as §3

[31] = system: KCHSC; test: Pre-emergence action against KCHSC, 1280 g/ha; format: in vivo, Bassia scoparia; settings: scored visually after about 3 weeks vs untreated controls (100% = plants have died)
How it was run: as §1

[32] = system: AVEFA; test: Pre-emergence action at 320 g/ha against AVEFA; format: in vivo; settings: visual scoring after about 3 weeks vs untreated controls
How it was run: as §2

[33] = system: DIGSA; test: Post-emergence action against DIGSA, 1.28 kg/ha; format: in vivo, Digitaria sanguinalis; settings: dosage 1280 g/ha, visual rating about 3 weeks after treatment vs untreated controls
How it was run: as §3

[34] = system: POLCO; test: Pre-emergence action at 320 g/ha against POLCO; format: in vivo, Fallopia convolvulus (Polygonum convolvulus); settings: visual scoring after about 3 weeks vs untreated controls
How it was run: as §2

[35] = system: ECHGC; test: Pre-emergence action at 320 g/ha against ECHGC; format: in vivo, Echinochloa crus-galli; settings: visual scoring after about 3 weeks vs untreated controls
How it was run: as §2

[36] = system: ECHCG; test: Post-emergence action against ECHCG, 1.28 kg/ha; format: in vivo, Echinochloa crus-galli; settings: dosage 1280 g/ha, visual rating about 3 weeks after treatment vs untreated controls
How it was run: as §3

N#CCCOC(=O)COc1nn(-c2ccccc2F)c(-c2ccc(F)nc2)c1Br [VII-104]
Pre-emergence action against VERPE [1]: 100% | Pre-emergence action against MATIN in % [2]: 100% | Post-emergence action against LOLRI [3]: 100% | Pre-emergence action against ECHCG [4]: 100% | Pre-emergence action against VIOTR in % [5]: 100% | Pre-emergence action against SETVI [6]: 100% | Pre-emergence action against PHBPU in % [7]: 100% | Pre-emergence action against SETVI in % [8]: 100% | Post-emergence action against AMARE [9]: 90% | Pre-emergence action against MATIN [10]: 100% | Pre-emergence action at 320 g/ha against ALOMY in % [11]: 100% | Pre-emergence action against AMARE [12]: 100% | Post-emergence action against SETVI [13]: 90% | Pre-emergence action against AMARE in % [14]: 100% | Pre-emergence action against DIGSA [15]: 100% | Post-emergence action against ALOMY [16]: 100% | Pre-emergence action against VERPE in % [17]: 100% | Pre-emergence action against ABUTH [18]: 90% | Pre-emergence action against DIGSA in % [19]: 100% | Post-emergence action against MATIN [20]: 100% | Pre-emergence action against ALOMY [21]: 100% | Pre-emergence action at 320 g/ha against ABUTH in % [22]: 80% | Post-emergence action against POAAN [23]: 100% | Pre-emergence action against LOLRI in % [24]: 100% | Pre-emergence action against LOLRI [25]: 100% | Post-emergence action against ABUTH [26]: 90% | Pre-emergence action against POAAN [27]: 100% | Post-emergence action against VERPE [28]: 90% | Pre-emergence action against STEME [29]: 100% | Post-emergence action against STEME [30]: 90% | Pre-emergence action against KCHSC [31]: 90% | Pre-emergence action against AVEFA in % [32]: 90% | Post-emergence action against DIGSA [33]: 100% | Pre-emergence action against POLCO in % [34]: 90% | Pre-emergence action against ECHGC in % [35]: 100% | Post-emergence action against ECHCG [36]: 100%
